Measured values published in US20230000869A1, “NOVEL ALK2 INHIBITORS AND METHODS FOR INHIBITING BMP SIGNALING” (The Brigham and Women's Hospital, Inc., priority 2017, published 2023).
Structures can show the parent of a compound that is named as a salt.

What was measured:
[1] = molecular target: T1, ALK2 (Mus musculus, UniProt P37172); assay: Luciferase reporter gene assay for ALK2 activity (C2C12 BRE-Luc SMAD1/5/8 reporter, BMP6 agonist); type: cell-based; conditions: BMP6 50 ng/mL
T1 construct: endogenous in cells; host or cells: C2C12-BRE (BRE-Luc reporter line, G418 selection)
T1 sequence (P37172 21-509): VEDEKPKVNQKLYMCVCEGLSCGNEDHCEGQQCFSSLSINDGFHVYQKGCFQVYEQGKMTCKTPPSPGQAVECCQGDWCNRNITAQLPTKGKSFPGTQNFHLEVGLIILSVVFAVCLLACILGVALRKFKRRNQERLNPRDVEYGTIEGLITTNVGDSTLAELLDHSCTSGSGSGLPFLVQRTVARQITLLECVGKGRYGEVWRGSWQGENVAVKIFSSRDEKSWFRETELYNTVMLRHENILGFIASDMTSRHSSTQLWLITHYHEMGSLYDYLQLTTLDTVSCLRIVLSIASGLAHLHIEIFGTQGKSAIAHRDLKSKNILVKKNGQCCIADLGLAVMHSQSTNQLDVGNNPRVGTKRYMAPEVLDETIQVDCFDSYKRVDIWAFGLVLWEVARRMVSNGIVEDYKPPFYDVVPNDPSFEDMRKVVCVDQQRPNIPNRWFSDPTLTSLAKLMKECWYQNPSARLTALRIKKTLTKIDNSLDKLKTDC
Experimental: (§1) All cell lines were cultured in DMEM, supplemented with […] and 1% Pen/Strep. All media reagents were obtained from Gibco. BMP6, BMP9, and TGFβ were obtained from R&D Systems. C2C12-BRE and HEK293T-SBE were kept in selection with 400 ug/mL G418 from Invivogen.
(§2) In this reporter gene cell based ALK2 and TGFβ assay, the C2C12 cell line was employed for the measurement of ALK2 activity, using a BRE-Luc SMAD1/5/8 reporter and BMP6 as the agonist. The HEK293T cell line was employed to measure TGFβ activity, using a SBE-Luc SMAD2/3 reporter and TGFβ as the agonist. Luciferase reporter assays were read using Promega Steady-Glo Luciferase Assay System.
(§3) Cells were plated in 96 well white clear bottom assay plates at 10 k cells/well for C2C12-BRE, 15 k cells/well for HEK293-SBE in DMEM containing 2% FBS 1% P/S. Cells were given a minimum of 4 hours in incubator at 37° C./5% CO2 to adhere prior to further treatment. Compounds were diluted in DMSO to a 10-point dilution curve and added to the plate to reach the following final concentrations: 10000, 3000, 1000, 300, 100, and 30 nM in the HEK293-SBE assay and 1000, 300, 100, 30, 10, 3, 1, 0.3 nM in the C2C12-BRE assay. Negative and positive control wells received 2 μL DMSO as vehicle treatment. Plates were returned to incubator for 45 minutes and then BMP6 and TGFB were added to a final concentration of 50 ng/mL and 5 ng/mL, respectively. Plates were returned to the incubator and left overnight. After a minimum of 18 hours post BMP6/TGFβ addition, the plates were read using Promega Steady-Glo Luciferase Assay System. A 1:1 mixture of prepared steady-glo and phenol free DMEM was prepared, and 50 μL/well was added to the assay plates whose media had been flicked off. Plates were given 10 minutes post steady-glo addition before luminescence was read on a Spectramax M5e microplate reader. Negative control wells were averaged and subtracted from all other wells on the plate. Inhibition was calculated as the percent of signal loss compared to the averaged positive control wells.

[2] = system: TGFβ; assay: Luciferase reporter gene assay for TGFβ activity (HEK293T SBE-Luc SMAD2/3 reporter, TGFβ agonist); type: cell-based; conditions: Homo sapiens, HEK-293T, TGFβ 5 ng/mL
Experimental: as §1, §2, §3

Row | SMILES | IC50 [1] | IC50 [2]
1 | COc1cc2c(-c3cnn4cc(N5CC(N6CCOCC6)C5)cnc34)ccnc2cc1F [Compound 193] | 118 nM | 449 nM
2 | CN1CCN(C2CCN(c3cnc4c(-c5ccnc(N6CCOCC6)c5)cnn4c3)CC2)CC1 [Compound 219] | 381 nM | > 3000 nM
3 | Cc1cc(-c2cnn3cc(N4CCC(N5CCN(C)CC5)CC4)cnc23)c2ccc(C(F)(F)F)cc2n1 [Compound 245] | > 1000 nM | 468 nM
4 | Cc1cc(-c2cnn3cc(N4CC(N5CCN(C)CC5)C4)cnc23)c2ccc(F)c(F)c2n1 [Compound 315] | 23 nM | 30 nM
5 | COc1cc2c(-c3cnn4cc(N5C[C@@H]6C(N(C)C)[C@@H]6C5)cnc34)ccnc2cc1F (stereo partly shown) [Example 297] | 21 nM | > 1000 nM
6 | COc1cc2c(-c3cnn4cc(N5CC(N6CCN(C)CC6)C5)cnc34)ccnc2cc1F [Compound 49] | 11 nM | 631 nM
7 | COc1cc2c(-c3cnn4cc(N5CCC(N6CCS(=O)(=O)CC6)CC5)cnc34)ccnc2cc1F [Compound 46] | 108 nM | 454 nM
8 | COc1cc2c(-c3cnn4cc(N5CCC(N6C[C@H]7C[C@@H]6CN7)CC5)cnc34)ccnc2cc1F [Compound 54] | 71 nM | 539 nM
9 | COc1ccc2c(-c3cnn4cc(N5CCC(N6CCN(C)CC6)CC5)cnc34)ccnc2c1 [Compound 254] | 244 nM | > 1000 nM
10 | COc1ccc2nccc(-c3cnn4cc(N5CCC(N6CCN(C)CC6)CC5)cnc34)c2n1 [Compound 60, 2-methoxy-8-[6-[4-(4-methylpiperazin-1-yl)-1-piperidyl]pyrazolo[1,5-a]pyrimidin-3-yl]-1,5-naphthyridine] | 42 nM | > 3000 nM
11 | Cc1cc(-c2cnn3cc(N4CCN(CCN5CCOCC5)CC4)cnc23)c2ccccc2n1 [Compound 19] | 113 nM | 64 nM
12 | Cc1cc(-c2cnn3cc(N4CCC(N5CCN(C)CC5)CC4)cnc23)c2ccc(F)cc2n1 [Compound 255] | 68 nM | 28 nM
13 | COc1cc2c(-c3cnn4cc(N5CCC(N6CCN(C)CC6)CC5)cc(OC5CCOCC5)c34)ccnc2cc1F [Compound 224] | > 1000 nM | > 3000 nM
14 | Cc1cc(-c2cnn3cc(N4CC(c5ccncc5)C4)cnc23)c2ccccc2n1 [Compound 210] | 17 nM | 91 nM
15 | CN1CCN(C2CCN(c3cnc4c(-c5ccnc6cc(F)c(Cl)cc56)cnn4c3)CC2)CC1 [Compound 240] | 16 nM | 291 nM
16 | COc1cc2c(-c3cnn4cc(N5CC6(CN(C)C6)C5)cnc34)ccnc2cc1F [Compound 282] | 10 nM | 96 nM
17 | Cc1cc(-c2cnn3cc(N4CCC(N5CCN(C)CC(F)(F)C5)CC4)cnc23)c2ccccc2n1 [Compound 207] | 331 nM | 215 nM
18 | COc1cc2c(-c3cnc4cc(N5CCC(N6CCN(C)CC6)CC5)cnn34)ccnc2cc1F [Compound 355] | 146 nM | 791 nM
19 | COc1ccc2nccc(-c3cnn4cc(N5CCC(N6CCN(C)CC6)CC5)cnc34)c2c1 [Compound 20] | 8 nM | 218 nM
20 | [2H]C([2H])([2H])c1ccc2nccc(-c3cnn4cc(N5CCC(N6CCN(C)CC6)CC5)cnc34)c2c1 [Compound 320] | 27 nM | 605 nM
21 | Cc1cc2nccc(-c3cnn4cc(N5CCC(N6CCN(C)CC6)CC5)cnc34)c2[nH]1 [Compound 227] | 903 nM | 826 nM
22 | CN1CCN(C2CCN(c3cnc4c(-c5ccnc6cn[nH]c56)cnn4c3)CC2)CC1 [Compound 269] | 311 nM | > 3000 nM
23 | COc1cc2c(-c3cnn4cc(N5CCC(N6CCN(C)CC6)CC5)cnc34)cc[n+]([O-])c2cc1F [Compound 324] | 178 nM | 723 nM
24 | CN1CCN(C2CCN(c3cnc4c(-c5ccc(C(N)=O)c6ccccc56)cnn4c3)CC2)CC1 [Compound 9] | 36 nM | 23 nM
25 | COc1cc2c(-c3cnn4cc(N5CCN(c6nnc(C)s6)CC5)cnc34)ccnc2cc1F [Compound 204] | 11 nM | > 3000 nM
26 | COc1cc2c(-c3cnn4cc(N5CCC(C)(N6CCN(C)CC6)CC5)cnc34)ccnc2cc1F [Compound 57] | 207 nM | > 1000 nM
27 | COc1cc2c(-c3cnn4cc(N5CCC(N6C[C@@H]7C[C@H]6CN7C)CC5)cnc34)ccnc2cc1F [Compound 215] | 34 nM | 142 nM
28 | CN1CCN(C2CCN(c3cnc4c(-c5ccnc6cc(OC(F)(F)F)ccc56)cnn4c3)CC2)CC1 [Compound 262] | > 1000 nM | > 3000 nM
29 | COc1cc2c(-c3cnn4cc(N5CCC(N6CCN(C)CC6C)CC5)cnc34)ccnc2cc1F (stereo not shown) [Compound 58, 4-[6-[4-(2,4-dimethylpiperazin-1-yl)-1-piperidyl]pyrazolo[1,5-a]pyrimidin-3-yl]-7-fluoro-6-methoxy-quinoline] | 377 nM | 970 nM
30 | Cc1cc(-c2cnn3cc(N4CCC(N5CCN(C)CC5)CC4)cnc23)c2cc(F)ccc2n1 [Compound 275] | 133 nM | 72 nM

The remaining lines, values ahead:

Row | IC50 [1] | IC50 [2] | SMILES
31 | < 1 nM | < 1 nM | CS(=O)(=O)c1cccc(-c2cnn3cc(N4CCN(C5CCNCC5)CC4)cnc23)c1 [Compound 213, 3-(3-(methylsulfonyl)phenyl)-6-(4-(piperidin-4-yl)piperazin-1-yl)pyrazolo[1,5-a]pyrimidine trihydrochloride]
32 | 977 nM | 6830 nM | CN1CCN(C2CCN(c3cnc4c(-c5cccc(S(C)(=O)=O)c5)cnn4c3)CC2)CC1 [Compound 63]
33 | > 1000 nM | > 3000 nM | CN1CCN(C2CN(c3cnc4c(-c5cccc6c(C(N)=O)cccc56)cnn4c3)C2)CC1 [Compound 307]
34 | 28 nM | > 3000 nM | CN1CCN(C2CCN(c3cnc4c(-c5cccc(P(C)(C)=O)c5)cnn4c3)CC2)CC1 [Compound 64]
35 | 3 nM | < 1 nM | Cc1cc(-c2cnn3cc(N4CC5(CN(C)C5)C4)cnc23)c2ccccc2n1 [Example 298]
36 | 51 nM | 416 nM | COc1cc2c(-c3cnn4cc(N5CCC(C(C)(C)N)CC5)cnc34)ccnc2cc1F [Compound 211]
37 | 6 nM | 277 nM | COc1ccc2nccc(-c3cnn4cc(N5CC(N6CCN(C)CC6)C5)cnc34)c2c1 [Compound 221]
38 | > 1000 nM | > 1000 nM | CN1CCN(C2CCN(c3cnc4c(-c5ccnc(N)c5)cnn4c3)CC2)CC1 [Compound 249]
39 | 21 nM | 38 nM | Cc1cc(-c2cnn3cc(N4CC(N5CCN(C)CC5)C4)cnc23)c2ccc(F)cc2n1 [Compound 310]
40 | > 3000 nM | > 3000 nM | CC(=O)N1CCC(N2CCN(c3cnc4c(-c5ccnc6ccccc56)cnn4c3)CC2)CC1 [Compound 81]
41 | 38 nM | 760 nM | CS(=O)(=O)c1cccc(-c2cnn3cc(N4CCNCC4)cnc23)c1 [Compound 212]
42 | > 1000 nM | > 2000 nM | CN1CCN(C2CCN(c3cnc4c(-c5cccc6[nH]ncc56)cnn4c3)CC2)CC1 [Compound 243]
43 | > 1000 nM | > 1000 nM | CN1CCN(C2CCN(c3cnc4c(-c5ccnc6ccc(C#N)cc56)cnn4c3)CC2)CC1 [Compound 234]
44 | 26 nM | 209 nM | CN1CCN(C2CCN(c3cnc4c(-c5ccnc6ccc(F)cc56)cnn4c3)CC2)CC1 [Compound 251]
45 | 558 nM | > 3000 nM | Cc1cccc2c(-c3cnn4cc(N5CCC(N6CCN(C)CC6)CC5)cnc34)ccnc12 [Compound 270]
46 | 6 nM | 240 nM | CN1CCN(C2CCN(c3cnc4c(-c5cc(C#N)nc6ccccc56)cnn4c3)CC2)CC1 [Compound 237]
47 | 13 nM | < 1 nM | NC(=O)c1ccc(-c2cnn3cc(N4CCN(C5CCNCC5)CC4)cnc23)c2ccccc12 [Compound 3]
